Assay results taken from patent US12310236B2, “Encapsulant preventing lead leakage on perovskite, method for encapsulating perovskite to prevent lead leakage and perovskite photosensitive device comprising the same” (PUKYONG NATIONAL UNIVERSITY INDUSTRY—UNIVERSITY COOPERATION …, priority 2023, dated 2025).

Assay: Solvent solubility of the crown ether compounds in the coating solution
Type: physicochemical
Settings: ethanol coating solution
Procedure: We prepared a coating solution for performing the perovskite encapsulating method. 18-crown-6-ether (hereafter, referred to as a raw material) was prepared as the crown ether. A compound (hereinafter, referred to as di-benzo) in which only two benzene rings are bonded to the crown ether was prepared as a comparative group. […] The di-benzo was dissolved in ethanol at 0.01 to 0.03% by weight. […] Thus, resulting solutions were prepared.

Question: With `c1ccc2c(c1)OCCOCCOc1ccccc1OCCOCCO2` [di-benzo] as the compound, how does the solvent solubility read?
Answer: The solvent solubility was ≤ 0.03 % by weight.
